Results: the supplement of paper PMC11061612

Key:
Venetoclax = compound: CC1(C)CCC(CN2CCN(c3ccc(C(=O)NS(=O)(=O)c4ccc(NCC5CCOCC5)c([N+](=O)[O-])c4)c(Oc4cnc5[nH]ccc5c4)c3)CC2)=C(c2ccc(Cl)cc2)C1 [Venetoclax]; conditions: max 1 µM
How it was run: (§1)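 Cancer cell lines in 1536-well plates (7.5 μl DMEM/F12 or RPMI, 10% FBS) were held 24 hours at 37°C and 5% CO2 and then dosed for 72 hours at a final DMSO of typically 0.2%. Viability was taken from CellTiter-Glo 2.0 luminescence, scaled between blank-well and DMSO-well means. Curves were fitted as two-parameter logistic models with a non-linear mixed effects model, from which the single-agent IC50 was taken.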

Selumetinib = compound: Cn1cnc2c(F)c(Nc3ccc(Br)cc3Cl)c(C(=O)NOCCO)cc21 [Selumetinib]; conditions: max 10 µM
How it was run: as §1

Taselisib = compound: Cc1nc(-c2cn3c(n2)-c2ccc(-c4cnn(C(C)(C)C(N)=O)c4)cc2OCC3)n(C(C)C)n1 [Taselisib]; conditions: max 10 µM
How it was run: as §1

Trametinib = compound: CC(=O)Nc1cccc(-n2c(=O)n(C3CC3)c(=O)c3c(Nc4ccc(I)cc4F)n(C)c(=O)c(C)c32)c1 [Trametinib]; conditions: max 1 µM
How it was run: as §1

Savolitinib = compound: C[C@@H](c1ccc2nccn2c1)n1nnc2ncc(-c3cnn(C)c3)nc21 [Savolitinib]; conditions: max 1 µM
How it was run: as §1

Doxorubicin = compound: COc1cccc2c1C(=O)c1c(O)c3c(c(O)c1C2=O)C[C@@](O)(C(=O)CO)C[C@@H]3O[C@H]1C[C@H](N)[C@H](O)[C@H](C)O1 [Doxorubicin]; conditions: max 1 µM
How it was run: as §1

Alisertib = compound: COc1cc(Nc2ncc3c(n2)-c2ccc(Cl)cc2C(c2c(F)cccc2OC)=NC3)ccc1C(=O)O [Alisertib]; conditions: max 10 µM
How it was run: as §1

AZD1390 = compound: CC(C)n1c(=O)n(C)c2cnc3cc(F)c(-c4ccc(OCCCN5CCCCC5)nc4)cc3c21 [AZD1390]; conditions: max 0.3 µM
How it was run: as §1

Gefitinib = compound: COc1cc2ncnc(Nc3ccc(F)c(Cl)c3)c2cc1OCCCN1CCOCC1 [Gefitinib]; conditions: max 10 µM
How it was run: as §1

Prexasertib = compound: COc1cccc(OCCCN)c1-c1cc(Nc2cnc(C#N)cn2)n[nH]1 [Prexasertib]; conditions: max 1 µM
How it was run: as §1

Lapatinib = compound: CS(=O)(=O)CCNCc1ccc(-c2ccc3ncnc(Nc4ccc(OCc5cccc(F)c5)c(Cl)c4)c3c2)o1 [Lapatinib]; conditions: max 10 µM
How it was run: as §1

SN-38 = compound: CCc1c2c(nc3ccc(O)cc13)-c1cc3c(c(=O)n1C2)COC(=O)[C@]3(O)CC [SN-38]; conditions: max 0.3 µM
How it was run: as §1

Crizotinib = compound: C[C@@H](Oc1cc(-c2cnn(C3CCNCC3)c2)cnc1N)c1c(Cl)ccc(F)c1Cl [Crizotinib]; conditions: max 10 µM
How it was run: as §1

Capivasertib = compound: C1CN(CCC1(C(=O)N[C@@H](CCO)C2=CC=C(C=C2)Cl)N)C3=NC=NC4=C3C=CN4 [Capivasertib]; conditions: max 10 µM
How it was run: as §1

Palbociclib = compound: CC(=O)c1c(C)c2cnc(Nc3ccc(N4CCNCC4)cn3)nc2n(C2CCCC2)c1=O [Palbociclib]; conditions: max 10 µM
How it was run: as §1

AZD8186 = compound: C[C@@H](Nc1cc(F)cc(F)c1)c1cc(C(=O)N(C)C)cc2c(=O)cc(N3CCOCC3)oc12 [AZD8186]; conditions: max 3 µM
How it was run: as §1

AZD0156 = compound: CN(C)CCCOc1ccc(-c2ccc3ncc4c(c3c2)n(C2CCOCC2)c(=O)n4C)cn1 [AZD0156]; conditions: max 3 µM
How it was run: as §1

AZD5153 = compound: COc1nnc2ccc(N3CCC(c4ccc(OCCN5CCN(C)C(=O)[C@H]5C)cc4)CC3)nn12 [AZD5153]; conditions: max 1 µM
How it was run: as §1

Olaparib = compound: O=C(c1cc(Cc2n[nH]c(=O)c3ccccc23)ccc1F)N1CCN(C(=O)C2CC2)CC1 [Olaparib]; conditions: max 10 µM
How it was run: as §1

SG3199 = compound: CC1=CN2[C@@H](C1)C=NC3=CC(=C(C=C3C2=O)OC)OCCCCCOC4=C(C=C5C(=C4)N=C[C@@H]6CC(=CN6C5=O)C)OC [SG3199]; conditions: max 0.001 µM
How it was run: as §1

AZD6738 = compound: C[C@@H]1COCCN1C2=NC(=NC(=C2)C3(CC3)[S@](=N)(=O)C)C4=C5C=CNC5=NC=C4 [AZD6738]; conditions: max 10 µM
How it was run: as §1

AZD5991 = compound: Cc1c2c(nn1C)CSCc1cc(n(C)n1)CSc1cc(c3ccccc3c1)OCCCc1c(C(=O)O)n(C)c3c-2c(Cl)ccc13 [AZD5991]; conditions: max 1 µM
How it was run: as §1

Dasatinib = compound: CC1=C(C(=CC=C1)Cl)NC(=O)C2=CN=C(S2)NC3=CC(=NC(=N3)C)N4CCN(CC4)CCO [Dasatinib]; conditions: max 2 µM
How it was run: as §1

AZD2811 = compound: CCN(CCO)CCCOc1ccc2c(Nc3cc(CC(=O)Nc4cccc(F)c4)[nH]n3)ncnc2c1 [AZD2811]; conditions: max 1 µM
How it was run: as §1

AZD4320 = compound: CN(CC[C@H](CSC1=CC=CC=C1)NC2=C(C=C(C=C2)S(=O)(=O)NC(=O)C3=CC=C(C=C3)N4CCC(CC4)[C@H](C5=CC=CC=C5C6=CC=C(C=C6)Cl)O)S(=O)(=O)C(F)(F)F)CCO [AZD4320]; conditions: max 1 µM
How it was run: as §1

AZD7648 = compound: Cc1cc2ncnn2cc1Nc1ncc2c(n1)n(C1CCOCC1)c(=O)n2C [AZD7648]; conditions: max 10 µM
How it was run: as §1

AZD1775 = compound: C=CCn1c(=O)c2cnc(Nc3ccc(N4CCN(C)CC4)cc3)nc2n1-c1cccc(C(C)(C)O)n1 [AZD1775]; conditions: max 3 µM
How it was run: as §1

Cell Line	IC50, cell viability 72 h (Venetoclax)	IC50, cell viability 72 h (Selumetinib)	IC50, cell viability 72 h (Taselisib)	IC50, cell viability 72 h (Trametinib)	IC50, cell viability 72 h (Savolitinib)	IC50, cell viability 72 h (Doxorubicin)	IC50, cell viability 72 h (Alisertib)	IC50, cell viability 72 h (AZD1390)	IC50, cell viability 72 h (Gefitinib)	IC50, cell viability 72 h (Prexasertib)	IC50, cell viability 72 h (Lapatinib)	IC50, cell viability 72 h (SN-38)	IC50, cell viability 72 h (Crizotinib)	IC50, cell viability 72 h (Capivasertib)	IC50, cell viability 72 h (Palbociclib)	IC50, cell viability 72 h (AZD8186)	IC50, cell viability 72 h (AZD0156)	IC50, cell viability 72 h (AZD5153)	IC50, cell viability 72 h (Olaparib)	IC50, cell viability 72 h (SG3199)	IC50, cell viability 72 h (AZD6738)	IC50, cell viability 72 h (AZD5991)	IC50, cell viability 72 h (Dasatinib)	IC50, cell viability 72 h (AZD2811)	IC50, cell viability 72 h (AZD4320)	IC50, cell viability 72 h (AZD7648)	IC50, cell viability 72 h (AZD1775)
CHP-212 (Neuroblastoma)	> 1000 nM	12 nM	1080 nM	< 1 nM	> 1000 nM	254 nM	64.3 nM	> 300 nM	> 10000 nM	51.5 nM	> 10000 nM	17.5 nM	2070 nM	> 10000 nM	3360 nM	> 3000 nM	> 3000 nM	59.2 nM	> 10000 nM	> 1 nM	1830 nM	257 nM	59.6 nM	169 nM	> 1000 nM	> 10000 nM	221 nM
COLO-678 (Colorectal Carcinoma)	> 1000 nM	3440 nM	> 10000 nM	264 nM	> 1000 nM	> 1000 nM	> 10000 nM	> 300 nM	> 10000 nM	> 1000 nM	> 10000 nM	> 300 nM	> 10000 nM	> 10000 nM	> 10000 nM	> 3000 nM	> 3000 nM	> 1000 nM	> 10000 nM	> 1 nM	> 10000 nM	> 1000 nM	> 2000 nM	> 1000 nM	> 1000 nM	> 10000 nM	> 3000 nM
DiFi (Colorectal Carcinoma)	> 1000 nM	7260 nM	606 nM	42.8 nM	> 1000 nM	961 nM	5960 nM	> 300 nM	52.4 nM	16.7 nM	315 nM	33.3 nM	> 10000 nM	> 10000 nM	> 10000 nM	> 3000 nM	> 3000 nM	403 nM	> 10000 nM	> 1 nM	3530 nM	> 1000 nM	> 2000 nM	595 nM	> 1000 nM	> 10000 nM	1420 nM
EVSA-T (Breast Carcinoma)	> 1000 nM	> 10000 nM	1050 nM	> 1000 nM	> 1000 nM	> 1000 nM	6350 nM	> 300 nM	> 10000 nM	> 1000 nM	4490 nM	> 300 nM	3360 nM	289 nM	> 10000 nM	199 nM	> 3000 nM	65.2 nM	> 10000 nM	> 1 nM	> 10000 nM	56.1 nM	> 2000 nM	> 1000 nM	> 1000 nM	> 10000 nM	> 3000 nM
